Measured values published in patent US20070074967A1, “Photodegradable protective group” (The University of Tokyo, priority 2005, published 2007).

Test: Photodeprotection by irradiation with light of 470 nm (absorption spectra, fluorescence)
Format: physicochemical
Settings: for Change of absorption peaks around 450 nm with the light irradiation / Change of absorption peaks around 490 nm with the light irradiation (release of 6-hydroxy-9-o-toluylxanthen-3-one by deprotection): 3 μM in 0.1 M sodium phosphate buffer (pH 7.4), 10% N,N-dimethylformamide, light of 470 nm, argon laser, FIG. 1
Description: 3,5-DNB-2-Me TG obtained in Example 1 and o-NB-2-Me TG obtained in Example 2 were each dissolved in 0.1 M sodium phosphate buffer (pH 7.4) at a concentration of 3 μM. As a cosolvent, 10% N,N-dimethylformamide was added.
Light of 470 nm was irradiated by using an argon laser. One cycle consisted of 128 pulses×10 times.
It can be understood that the peaks around 450 nm observed for 3,5-DNB-2-Me TG and o-NB-2-Me TG were lowered, and the peaks around 490 nm were highered with the light irradiation. This is because 6-hydroxy-9-o-toluylxanthen-3-one was released from the compounds by deprotection.

Row | Structure (SMILES) | Change of absorption peaks around 450 nm with the light irradiation | Change of absorption peaks around 490 nm with the light irradiation (release of 6-hydroxy-9-o-toluylxanthen-3-one by deprotection) | Fluorescence provided by released 6-hydroxy-9-o-toluylxanthen-3-one on irradiation (irradiated with light of 470 nm, FIG. 2)
1 | Cc1ccccc1-c1c2ccc(=O)cc-2oc2cc(OCc3cc([N+](=O)[O-])cc([N+](=O)[O-])c3)ccc12 [3,5-DNB-2-Me TG, 6-(3,5-dinitrobenzyloxy)-9-o-toluylxanthen-3-one] | lowered | highered | increase of fluorescence
2 | Cc1ccccc1-c1c2ccc(=O)cc-2oc2cc(OCc3ccccc3[N+](=O)[O-])ccc12 [o-NB-2-Me TG, 6-(2-nitrobenzyloxy)-9-o-toluylxanthen-3-one] | lowered | highered | –
